Laboratory results published in BindingDB's records for doi:10.1111/j.1747-0285.2010.00957.x (Pfizer, 2010).
pIC50: −log10 of the molar value.

How the values were obtained:
[1] = molecular target: Phosphopantetheine adenylyltransferase (Enterococcus faecalis (strain ATCC 700802 / V583), UniProt Q831P9); assay: High-Throughput Screening Assay (Forward Direction Assay)
Experimental: (§1) PPAT screening assay (forward-direction assay) were performed in clear 384 well plates containing in each well either 1-uL DMSO, 1 uL of variable concentrations of test compounds solvated in DMSO or 1 uL of a 100-uM solution of a dipeptide inhibitor of PPAT in DMSO which serves as the fully inhibit control.

[2] = molecular target: T1, Phosphopantetheine adenylyltransferase (Escherichia coli (strain K12), UniProt P0A6I6); assay: as above
Experimental: as §1

[3] = molecular target: T1, Phosphopantetheine adenylyltransferase; assay: Reverse PPAT Assay
Experimental: The reverse assay was performed in polyproplene 96-well plates containing in each well either 1 uL DMSO, 1 µL of variable concentrations of test compounds solvated in DMSO or 1 µL of a 100-uM solution of a dipeptide inhibitor of PPAT in DMSO which serves as control.

T1 sequence (P0A6I6 whole entry): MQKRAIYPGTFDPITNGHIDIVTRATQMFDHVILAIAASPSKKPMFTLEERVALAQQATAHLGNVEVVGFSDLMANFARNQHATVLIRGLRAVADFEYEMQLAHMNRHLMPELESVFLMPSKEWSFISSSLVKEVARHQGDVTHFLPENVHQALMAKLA
Phosphopantetheine adenylyltransferase (Enterococcus faecalis (strain ATCC 700802 / V583), UniProt Q831P9), sequence (Q831P9 whole entry): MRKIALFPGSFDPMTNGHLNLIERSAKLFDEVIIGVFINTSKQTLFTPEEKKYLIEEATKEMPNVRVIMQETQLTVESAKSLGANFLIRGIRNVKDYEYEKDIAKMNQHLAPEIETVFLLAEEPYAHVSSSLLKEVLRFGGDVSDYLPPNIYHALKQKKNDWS

Compound | pIC50 [1] | pIC50 [2] | pIC50 [3]
Cc1c(C(=O)O)[nH]n2c(=O)c3ccc(Cl)cc3nc12 [3-substituted pyrazoloquinolone, 24] | < 3.78 | 3.97 | –
C[S+]([O-])c1ccc2nc3cc(C(=O)O)[nH]n3c(=O)c2c1 (centres undefined) [7-substituted pyrazoloquinolone, 13] | 4.70 | 3.78 | –
CS(=O)(=O)c1ccc2nc3cc(C(=O)O)[nH]n3c(=O)c2c1 [7-substituted pyrazoloquinolone, 14] | – | 4.04 | –
O=C(O)c1cc2nc3ccc(F)cc3c(=O)n2[nH]1 [7-substituted pyrazoloquinolone, 9] | < 3.78 | 3.99 | –
Cc1ccc2nc3cc(C(=O)O)[nH]n3c(=O)c2c1 [7-substituted pyrazoloquinolone, 7] | – | 3.61 | –
O=C(O)c1cc2nc3cc(Cl)ccc3c(=O)n2[nH]1 [6-substituted pyrazoloquinolone, 23] | 3.67 | 4.31 | 4.03
Nc1ccc2c(=O)n3[nH]c(C(=O)O)cc3nc2c1 [6-substituted pyrazoloquinolone, 21] | 4.00 | 3.92 | –
O=C(O)c1cc2nc3ccccc3c(=O)n2[nH]1 [7-substituted pyrazoloquinolone, 6] | < 3.78 | 3.60 | < 3.64
O=C(O)c1cc2nc3cc(C(F)(F)F)ccc3c(=O)n2[nH]1 [6-substituted pyrazoloquinolone, 20] | < 3.78 | 4.27 | 3.70
COc1ccc2nc3cc(C(=O)O)[nH]n3c(=O)c2c1 [7-substituted pyrazoloquinolone, 17] | < 3.78 | < 3.82 | –
O=C(O)c1cc2nc3cc(Br)ccc3c(=O)n2[nH]1 [6-substituted pyrazoloquinolone, 22] | < 3.78 | 3.91 | < 3.90
Cn1c2ccc(Cl)cc2c(=O)n2nc(C(=O)O)cc12 [4-substituted pyrazoloquinolone, 18] | – | 3.80 | –

The remaining molecules from weak to strong by pIC50 [2], led by results:

pIC50 [1] | pIC50 [2] | pIC50 [3] | Compound
3.80 | 4.31 | 5.15 | CN(C)c1ccc2nc3cc(C(=O)O)[nH]n3c(=O)c2c1 [7-substituted pyrazoloquinolone, 16]
< 4.12 | 4.77 | – | O=C(O)c1cc2nc3ccc(Cl)cc3c(=O)n2[nH]1 [7-substituted pyrazoloquinolone, 8]
< 3.78 | 4.82 | – | Cc1ccc2c(=O)n3[nH]c(C(=O)O)cc3nc2c1 [6-substituted pyrazoloquinolone, 19]
3.60 | 4.85 | 5.30 | CC(C)Sc1ccc2nc3cc(C(=O)O)[nH]n3c(=O)c2c1 [7-substituted pyrazoloquinolone, 15]
< 4.19 | 4.89 | 5.06 | CSc1ccc2nc3cc(C(=O)O)[nH]n3c(=O)c2c1 [7-substituted pyrazoloquinolone, 12]
3.68 | 5.21 | 4.66 | O=C(O)c1cc2nc3ccc(Br)cc3c(=O)n2[nH]1 [7-substituted pyrazoloquinolone, 10]
< 3.86 | 5.29 | 4.96 | O=C(O)c1cc2nc3ccc(I)cc3c(=O)n2[nH]1 [7-substituted pyrazoloquinolone, 11]
